The numbers were not newly measured in patent US20200000750A1, “Composition for Treating Acute and Chronic Pain” (priority 2018, published 2020), which cites them from elsewhere.

Series [1] relates to acute attacks of gout. To be noted: literature; colchiceine at 5 to 8 mg orally.
Series [2] has as its system granulocytopoiesis. To be noted: animals and humans; compared with colchicine.
In series [3] the test system is humans. To be noted: with the doses mentioned.
The test system of series [4] is birds.
For series [5], the system named is spermatogenesis. The conditions noted are these: in vivo.
In series [6] the test system is mitosis, spindle formation. To be noted: for antimitotic effect (mitotic or spindle poison): literature; for antagonism of colchicine: literature (Benitez et al. 1954).
For series [7] the following is noted: literature.

As to `COc1cc2c(c(OC)c1OC)-c1ccc(OC)c(=O)cc1[C@@H](NC(C)=O)CC2` [Colchicine, colchicine], the “anti-gout effect in acute attacks of gout” value (“anti-gout effect” below) in series [1] is given as “dramatic relief of acute attacks of gout”.
As for `CN[C@H]1CCc2cc(OC)c(OC)c(OC)c2-c2ccc(OC)c(=O)cc21` [Desacetylmethylcolchicine], the effect on granulocytopoiesis result in series [2] is on record as “very depressing effect on granulocytopoiesis, much greater than colchicine”. Further, the alopecia entry in series [3] is listed as “temporary total alopecia”. In addition, in series [4], the loss of feathers result is given as “loss of feathers”. In addition, the effect on spermatogenesis entry in series [5] is recorded as “Impairment of spermatogenesis”.
In the case of `COc1cc2c(c(OC)c1OC)-c1ccc(=O)c(OC)cc1[C@@H](NC(C)=O)CC2` [Iso-colchicine], in series [1], the “anti-gout effect” value is “little or no anti-gout effects”. In addition, the “antimitotic effect (mitotic or spindle poison)” value in series [6] is given as “relatively ineffective as mitotic poisons”. Further, in series [7], the toxicity entry is listed as “relatively nontoxic”.
As to `O=C(CCc1ccc(O)cc1)c1c(O)cc(O)cc1O[C@@H]1O[C@H](CO)[C@@H](O)[C@H](O)[C@H]1O` [Phlorizine], in series [6] (literature (H. R. Littre, et al. 1951)), the “increase of the antimitotic effect of colchicine (synergist)” value is recorded as “eight times”.
Take `COc1cc2c(c(OC)c1OC)-c1ccc(=O)c(O)cc1[C@@H](NC(C)=O)CC2` [colchiceine]: the “anti-gout effect” value in series [1] is “no anti-gout effects”. Moreover, in series [6], the “antimitotic effect (mitotic or spindle poison)” value is “very weak antimitotic”. Further, in series [7], the diarrheal effect result is on record as “very weak”.
As to `COc1c(O[C@@H]2O[C@H](CO)[C@@H](O)[C@H](O)[C@H]2O)cc2c(c1OC)-c1ccc(OC)c(=O)cc1[C@@H](NC(C)=O)CC2` [colchicoside], the “anti-gout effect” value in series [1] was “equivocal results”.
On to `O[C@H]1[C@H](O)[C@@H](O)[C@H](O)[C@@H](O)[C@H]1O` [mesoinosital], for which the antagonism of colchicine entry in series [6] is “potent antagonist of colchicine”.
For `O=c1cccccc1O` [tropolone], in series [6], the “antimitotic effect (mitotic or spindle poison)” value is recorded as “not a spindle poison but rather favors the formation of the spindle” and the antagonism of colchicine result was “potent antagonist of colchicine”.
